Results: US4785080A, “Labeled analytes” (Baker Instruments Corporation, priority 1985, dated 1988)
Values joined by “and” are separate entries in the source; they are usually repeats but may differ in a detail not shown here. Equal values may be shown once.

Experiments:
Type in all cases: binding
dilantin antibody [1] = experiment: Reference displacement curve for dilantin, colorimetric, CentrifiChem 500 (Example XX)
Protocol: This Example illustrates the generation of a reference displacement curve for the dilantin analyte on the CentrifiChem®500 centrifugal fast analyzer. A […] substrate, 5'-O-acetyl-uridine-3'(4-methylumbelliferone-7-yl phosphate), was used.
(§1) The following reagents were prepared:
a. Dilantin S-peptide labeled analyte: Material prepared in the manner described in Examples V-VIII in 0.1M triethanolamine (TEA)-HCl buffer was used.
b. Antibody: Anti-dilantin antisera was diluted by a factor of 1/20 with 0.1M TEA-HCl buffer of pH 7.1;
c. Substrate: Seventeen milligrams of 5'-O-acetyl 2'-O-(tetrahydropyran-2-yl) uridine 3'-(4-methylumbelliferone-7-yl ammonium phosphate) was added to 750 ul 0.05N HCl and stirred at room temperature for 30 min. Sodium acetate buffer, (1.880 ml, 0.1M, pH 5..0), was added. Just before use, 300 ul of this solution was combined with 5.094 ml of 0.1M TEA-HCl buffer of pH 7.1;
d. S-protein: Sigma purified commercial material was diluted by a factor of 1:100 with 0.1M TEA-HCl buffer of pH 7.1 to give a solution having a concentration of 1.53×10^-6 M;
e. Dilantin standards: A stock solution of 5,5-diphenylhydantoin sodium salt (Sigma Lot 64C-0027) was made up by dissolving 48 mg in 1 liter of 0.025N sodium hydroxide. This was diluted by a factor of 1:10 with 0.025N sodium hydroxide to give a solution having 4.8 ug/ml. This was further diluted to give standard solutions having concentrations of 19.1, 47.8, 95.8, 143.6, and 191.5 ng/ml.
The CentrifiChem® 500 centrifugal fast analyzer had the following instrument settings: rotor temp, 30°; filter, nm; To, 10 sec; T, 1 min; ABS 1.0 u; Blank, hold; test mode, Term; print out, ABS; conc. factor, 0; test code 0.
Antibody, dilantin-S-peptide and 16.6 ul of the standard solution were pipetted into the sample well of channels to 16 of the transfer disc. S-protein and 300 ul of substrate were pipetted into each of the corresponding reagent wells of the transfer disc. The transfer disc was placed on the rotor and spun. […] Catalytic activity rates (a.u./min) were obtained frcm a least squares, regression analysis of absorbances as a function of time.

dilantin antibody [2] = experiment: Homogeneous immunoassay of dilantin standards and clinical samples, automatic data reduction (Example XXI); conditions: human serum
Protocol: This Example illustrates the design of an assay capable of directly assaying clinical samples, the use of the automatic pipetter (Model P-500) associated with the Centrifichem® 500 centrifugal fast analyzer, and the use of automatic data reduction.
The following reagents were utilized:
a. Labeled Analyte: Dilantin-S-peptide labeled analyte in 0.1 M triethanolamine (TEA)-HCl buffer, prepared in the manner described in Examples V-VIII was used.
b. Antibody: Anti-dilantin antiserum (150 ul) was diluted with 900 ul of 0.1M TEA-HCl buffer of pH 7.1;
c. Substrate: 5'-O-acetyl 2'-O-(tetrahydro pyran-2-yl) uridine 3'-(4-methylumbelliferone-7-yl ammonium phosphate) (6.4 mg) was added to 285.2 ul of 0.05N HCl and stirred at room temperature for 30 minutes. Sodium acetate buffer (714.8 ul, 0.1M, pH 5.0) was then added;
S-protein: A 12.3×10^-5 M solution of Sigma S-protein was made up in 0.1M TEA-HCl buffer (pH 7.1);
e. Dilantin standards: Solutions of 5, 5-diphenylhydantoin sodium salt (Sigma lot 64C-0027) were made up in human serum at concentrations of 2.5, 5.0, 10.0, 20.0 and 30.0 ug/ml.
A mixture of 16 ul S-peptide labeled analyte, 10 ul of human serum albumin, 1430 ul of TEA-HCl buffer, and the substrate solution described in (c.) was prepared (designated Reagent 1). A second mixture consisting of 150 ul of antiserum, 50 ul of S-protein, and 1937.5 ul of TEA buffer was prepared (designated Reagent 2). Using the CentrifiChem® P-500 automatic pipetter, 4 ul of the appropriate standard solution was simultaneously diluted with 45 ul of deionized H2 O and pipetted into the sample well of transfer disc. At the same time, the pipetter delivered 250 ul of Reagent 1 into the reagent well and 100 ul of Reagent 2 into the sample well. Instrumental parameters for the CentrifiChem® 500 centrifugal fast analyzer were the same as that for Example XX with the exception that Test Code 29 was used. This provides for automatic data reduction by the microprocessor unit of the CentrifiChem® 500 instrument.

dilantin antibody [3] = experiment: Heterogeneous double antibody solid phase immunoassay of dilantin, free phase catalytic activity (Example XXII)
Protocol: A standard displacement curve is generated from the catalytic activity measurement using 5'-O-acetyluridyl-3'-(4-methylumbelliferone-7-yl) phosphate as a fluorogenic substrate for determination of analyte concentration of the control serum.
as §1
a. Dilantin-S-peptide labeled analyte: Labeled analyte in TEA-HCl buffer was prepared in the manner described in Examples V-VIII; 120 ul was diluted with 2860 ul of TEA-HCl buffer.
b. Antibody: Anti-dilantin antisera (300 ul) was diluted with 1800 ul of TEA-HCl buffer.
c. Solid phase immobilized second antibody: Bio-Rad IMMUNOBEAD™, Lot 17003, 50 mg was reconstituted with 50 ml of TEA-HCl buffer.
d. Substrate: 5'-O-acetyl-2'-O-(tetrahydropyran-2-yl) uridyl-3'-(4-methylumbelliferone-7-yl) ammonium phosphate, 35 mg, was deblocked with 1.5 ml of 0.025M HCl for 40 minutes at room temperature and extracted twice with 5 ml of ether. The residual ether was removed by the stream of air and the acidic solution was buffered with acetate buffer to 100 ml.
e. Acetate buffer: Sodium acetate buffer, 0.1M, pH 5.0.
f. TEA-HCl buffer: Triethanolamine-HCl buffer, 0.05M, pH 7.5.
g. […]
h. S-protein: Sigma purified solution was diluted 1/20 in acetate buffer.
[…] Antibody aliquots of 100 ul were pipetted into each duplicate tube of standards and the resulting mixtures were vortexed and incubated for 20 minutes at room temperature. Dilantin-S-peptide labeled analyte aliquots of 100 ul each were then pipetted into all tubes. The resulting mixture was incubated for 20 mintes at room temperature.
TEA-HCl buffer (108 ul), and Dilantin-S-peptide labeled analyte (100 ul) were pipetted into duplicate assay tubes labeled total. The resulting mixtures were mixed by vortexing and incubated for 20 minutes at room temperature.
Next a second antibody solution of 500 ul each was pipetted into all tubes except for total assay tubes. TEA-HCl buffer (500 ul) was pipetted into total assay tubes. The resulting mixtures were mixed by vortexing and were incubated for 60 minutes at room temperature. All assay tubes except total were centrifuged for 5 minutes at 3000 rpm at 5°-10° C.
The supernatant (free phase) of each tube was transferred into new tubes marked accordingly. The solid phase was resuspended with 0.5 ml of TEA buffer in each tube and centrifuged as above. The supernatant was decanted off.
Dose responsive catalytic activity was measured as follows:
An aliquot sample (50 ul each) of the free phase and total were assayed respectively with 1.8 ml of substrate and 50 ul of S-protein, measuring the fluorogenic product formation by emission at 440 nm when the mixture was excited at 325 nm, using a. Farrand Mark 1 fluorimeter.
The raw data were fit by a modified log-logit algorithm where the rates at infinite and 0 standard concentrations are obtained by an iterative procedure. Each data point in the Table represents the mean of duplicate points.

Rate (dilantin antibody [1]; standard 19.1 ng/ml): 0.0154 a.u./min and 0.0171 a.u./min | Rate (dilantin antibody [1]; standard 47.8 ng/ml): 0.0183 a.u./min and 0.0158 a.u./min | Rate (dilantin antibody [1]; standard 95.8 ng/ml): 0.0191 a.u./min and 0.0197 a.u./min | Rate (dilantin antibody [1]; standard 143.6 ng/ml): 0.0204 a.u./min and 0.0180 a.u./min | Rate (dilantin antibody [1]; standard 191.5 ng/ml): 0.0209 a.u./min and 0.0205 a.u./min
SMILES: O=C1NC(=O)C(c2ccccc2)(c2ccccc2)N1 [dilantin, 5,5-diphenylhydantoin]
10^3 Response (dilantin antibody [2]; standard 2.5 ug/ml): 230 a.u. and 231 a.u. | 10^3 Response (dilantin antibody [2]; standard 5 ug/ml): 252 a.u. and 256 a.u. | 10^3 Response (dilantin antibody [2]; standard 10 ug/ml): 358 a.u. and 373 a.u. | 10^3 Response (dilantin antibody [2]; standard 20 ug/ml): 512 a.u. and 494 a.u. | 10^3 Response (dilantin antibody [2]; standard 30 ug/ml): 525 a.u. and 524 a.u. | Rate, Mean (dilantin antibody [3]; standard 2.5 (ug/ml)): 10.0 na/min. | Rate, Mean (dilantin antibody [3]; standard 5.0 (ug/ml)): 10.5 na/min. | Rate, Mean (dilantin antibody [3]; standard 10.0 (ug/ml)): 14.0 na/min. | Rate, Mean (dilantin antibody [3]; standard 20.0 (ug/ml)): 16.5 na/min. | Rate, Mean (dilantin antibody [3]; standard 30.0 (ug/ml)): 19.0 na/min. | Rate, Mean (dilantin antibody [3]; standard 40.0 (ug/ml)): 20.5 na/min.
